Consider one substance from patent US4816560A, “Partially retro-inverted tuftsin analogues, method for the preparation thereof and pharmaceutical compositions containing them” (priority 1986, dated 1989).

This experiment deals with peritoneal M.phi. from normal C3H/HeN mice. Briefly: macrophage (M.phi.) phagocytic stimulation assay (ingestion of killed yeast cells, Zymosan). In kind it is cell-based. The source says: The compounds of formula I, including the pharmaceutically acceptable esters, amides and salts, are active as immunostimulating agents. […] This assay, carried out in comparison with tuftsin, has been performed according to a modification of the method described by Bar-Shavit et al. in J.Cell.Physiol., 100, p.55 (1979). More particularly, peritoneal M.phi. from normal C3H/HeN mice are harvested by washing of the peritoneal cavity and purified by adherence as described in J.Immunol., 132, p.1987 (1984). Monolayers of 1×10^6 adherent peritoneal cells (95-98% of the monocyte-M.phi. series as judged by morphology and latex phagocytosis) are cultured for 20 h at 37° C. in RPMI-1640 medium supplemented with 50 μg/ml gentamycin, 25 mM HEPES buffer, 2 mM L-glutamine and 10% heat-inactivated fetal bovine serum (FBS). At the end of the incubation, M.phi. are washed and then exposed for 15 minutes at 37° C. to 1.3 ml/plate of culture medium either alone (blank) or containing tuftsin or a compound of the invention at different concentrations. A 1.5×10^8 cells/ml suspension of killed yeast cells (Zymosan)(0.2 ml) is then added to the plates. M.phi. are incubated for 60 minutes at 37° C., then washed, fixed (2% glutaraldehyde in PBS, 30 minutes, 4° C.) and stained. The percentage of phagocyting M.phi. and the number of ingested Zymosan cells is measured with an optical microscope equipped with a 100x immersion objective. In a representative experiment aimed at comparing the activity of tuftsin with that of the corresponding retro-inverso analogue of example 1, it has been observed that all M.phi. were capable of phagocyting zymosan in the above described conditions.
As the poor therapeutical applicability of tuftsin is mainly due to its low stability and to the consequent rapid loss of biological activity, the phagocytosis assay has been repeated comparing the activity of tuftsin and its retro-inverso analogue of example 1, stored for 14 days in solution at 4° C. […] At the concentration of 10^-6 M in fact the compound of Example 1 gave a number of ingested zymosan cells per 100 phagocyting macrophages of 1.8×10^3 (with an immunopotentiating effect corresponding therefore to 136% of the control).

The mark [1] stands for this setting: peptide stored for 14 days in solution at 4° C., concentration 10^-6 M.

For the substance “{(2RS)-2-[N-(1-amino-2-hydroxy-propyl)carbamyl]-6-amino}-hexanoyl-L-prolyl- L-arginine [Example 1]”, the “number of ingested yeast cells (in words)” value (fresh peptide, linearly dependent on peptide concentration) was “significantly increased”. Also, the “ingested zymosan cells, % of the control” value (peptide concentration 3×10^-7 M) was 170 % of the control. Besides, the “ingested zymosan cells per 100 macrophages” value (peptide concentration 3×10^-7 M, 15 min exposure, then 60 min with Zymosan at 37° C.) is reported as 2.2×10^3 ingested zymosan cells per 100 macrophages. Besides, under “peptide concentration 10^-6 M”, the “ingested zymosan cells per 100 phagocyting macrophages” value was 2.44×10^3 ingested zymosan cells per 100 phagocyting macrophages and the “ingested zymosan cells, % of the control” value is given as 188 % of the control. Besides, the “phagocytosis stimulation (in words)” value (peptide stored for 14 days in solution at 4° C.) is given as “still significant even if less than above”. Further, under setting [1], the “immunopotentiating effect, % of the control” value was 136 % of the control and the “ingested zymosan cells per 100 phagocyting macrophages” value is recorded as 1.8×10^3 ingested zymosan cells per 100 phagocyting macrophages.
